Key:
Aspergillus niger = experiment: Fungal growth on acrylic/vinyl acrylic white house paint film on filter paper; assay type: cell-based; conditions: 0.06% actives in paint, four weeks 28° C., scale 1 (no growth touching square) to 15 (totally covered), average of at least 3 runs
Description: In this example an acrylic, vinyl acrylic white house paint was used as the test medium.
Test formulations of the actives were prepared for each of the biocide blends to be tested (see tables 2b and 2c) by weighing the appropriate amounts of actives and adding them to the test paint so that in each test formulation the weight of the actives was 20% of the sample and 80% of the sample was paint. Each mixture was then stirred to achieve a homogeneous mixture. These test formulations were then incorporated into the test paint at the rate of 0.3% w/w, i.e. the final level of actives in the paint was 0.06%.
The test paints were then applied to a filter paper using a standard 3-mil drawdown bar to insure uniformity of the film. Samples were then dried at room temperature, and placed on agar contained in a Petri dish. The filter papers were then inoculated with a test inoculum of Aspergillus niger. Inoculated filter papers containing the test paints were placed in a constant temperature (28° C.) fungal incubator for four weeks. At the end of the incubation, fungal growth on each test paint was measured and recorded.
Each test blend was run at least 3 times and each result represents the average of the runs.

[1] = system: Aspergillus niger (ATCC 6275); experiment: Minimum Inhibitory Concentration (MIC) by spiral gradient endpoint plating, with Kull synergistic index; assay type: cell-based
Description: Spores were removed from the Aspergillus niger slant by adding a small amount of phosphate buffer pH 7.0 (Thomas Scientific phosphate buffer & magnesium chloride, Lot # 023-0703) and scraping with a sterile nichrome wire loop. This process was repeated twice. Loosened spores were removed from the slant by aseptically pouring them into a sterile bottle containing 30 ml. of phosphate buffer and a volume of roughly 40 ml. of 6-mm, borosilicate glass beads. The bead bottle was shaken to disperse the spores and additional buffer was added to a final volume of 50 ml. Spore density was adjusted in distilled water blanks to that of a 0.5. McFarland nephelometer standard.
With the aid of the SGE Software the proper aqueous dilutions of each biocide or test blend were prepared and adjusted to a final volume of 10 ml. Then, 250 micro-liters of each biocide mixture was processed by the spiral plater.
The Autoplate 4000 mechanically applied mixtures of test fungicides to 150 MM malt agar plates using an exponential application gradient. Gradients of applied fungicides were allowed to completely diffuse into the surface of the agar (1 to 4 hours at room temperature 23° C.) before inoculating the plates with fungi. […]
Following incubation, visible growth of the test organism was observed on a portion of the radial streak and ended where the concentration of biocide was high enough to prevent growth. This growth endpoint was used by the SGE software to compute the exact MIC expressed as parts per million (PPM) of active fungicide. […]
Elisman, H. D. Sylwestrowicz and P. K. Mayer, in Applied Microbiology, 9:538 (1961) where: • Qa=the quantity of A used in a binary mixture that gives the desired effect. • QA=the quantity of A which when used alone gives the desired effect. • Qb=the quantity of B used in a binary mixture that gives the desired effect. • QB=the quantity of B which when used alone gives the desired effect.
The synergistic index (SI) for each mixture was determined by the equation SI=Qa/QA+Qb/QB.

[2] = system: Streptoverticillium reticulans ATCC 25607 (pink stain organism); experiment: ASTM E 1428-91 pink stain test of flexible PVC film; conditions: Table 3d, IPBC/Thiram in PVC film, 1000 ppm total; two weeks 28° C.; 0 no stain, 1 trace <10%, 2 slight 10-30%, 3 moderate 30-50%, 4 heavy >50% coverage; average of triplicate
Description: In this example a PVC formulation for flexible vinyl film was used as the test medium.
Five blends were prepared by adding the appropriate amount of the biocide to separate vinyl film form formulations prepared according to Table 3a.
Difco malt agar was prepared using manufacturers directions. Sterilized agar (30 ML) was poured into sterile plastic 100 mm Petri dishes to provide a solidified agar layer sufficient to nourish the test organism for the duration of the test.
Following inoculation of the agar, a sterile forceps was used to place the test specimen, previously sterilized by a brief dip in boiling water, on the agar. Each test blend was run in triplicate and the result represents the average of the three. The specimen was gently pressed on the surface of the agar to insure good contact. The Petri dishes were covered and incubated for two weeks in a 28° C. incubator.
Following incubation, samples were lifted from the surface of the agar and both sides were examined against a white background for presence of pink staining.
Degree of staining reported was determined by the area of the sample stained rather than by intensity of the color. […]

| Structure (SMILES) | Fungal Growth (Aspergillus niger; Table 2b, IPBC/Ziram) | Fungal Growth (Aspergillus niger; Table 2c, IPBC/Thiram) | QA (quantity of A which when used alone gives the desired effect) ([1]; MIC of IPBC alone (Table 1a)) | QA (quantity of A which when used alone gives the desired effect) ([1]; MIC of IPBC alone (Table 1b)) | Pink Stain Rating [2] | QB (quantity of B which when used alone gives the desired effect) ([1]; MIC of Thiram alone (Table 1b)) |
| --- | --- | --- | --- | --- | --- | --- |
| CCCCNC(=O)OCC#CI [IPBC, 3-iodo-2-propynyl butyl carbamate] | 7.8 fungus units | 2.8 fungus units | 1.08 ppm | 1.08 ppm |  |  |
| CN(C)C(=S)SSC(=S)N(C)C [Thiram, bis(dimethylthiocarbamoyl) disulfide] |  | 13.8 fungus units |  |  | 2.0 | 26.73 ppm |

Source: patent US20050049224A1, “Antimicrobial mixtures comprising iodopropynyl compounds and dimethyldithiocarbamate derivatives” (priority 2003, published 2005)
